# Measured values as given in article PMC3669009, “Degradation of Phytate by the 6-Phytase from Hafnia alvei: A Combined Structural and Solution Study” (PLoS ONE, 2013).
# Experiments:
# [1] = biological target: T1, HaPhy (Hafnia alvei phytase) (Hafnia alvei, UniProt H9TUK5); assay: X-ray crystal structure of the complex, […] Å; format: binding; settings: 0.2 M potassium/sodium tartrate, pH 8.4-9.1 (from crystallisation solution); active site; second tartrate at occupancy 0.25
# T1 construct: gene phyA; recombinant mature enzyme, purified, residues 1-416; expression details only in SI; monomer in the asymmetric unit; four disulphides
# T1 sequence (H9TUK5 34-446): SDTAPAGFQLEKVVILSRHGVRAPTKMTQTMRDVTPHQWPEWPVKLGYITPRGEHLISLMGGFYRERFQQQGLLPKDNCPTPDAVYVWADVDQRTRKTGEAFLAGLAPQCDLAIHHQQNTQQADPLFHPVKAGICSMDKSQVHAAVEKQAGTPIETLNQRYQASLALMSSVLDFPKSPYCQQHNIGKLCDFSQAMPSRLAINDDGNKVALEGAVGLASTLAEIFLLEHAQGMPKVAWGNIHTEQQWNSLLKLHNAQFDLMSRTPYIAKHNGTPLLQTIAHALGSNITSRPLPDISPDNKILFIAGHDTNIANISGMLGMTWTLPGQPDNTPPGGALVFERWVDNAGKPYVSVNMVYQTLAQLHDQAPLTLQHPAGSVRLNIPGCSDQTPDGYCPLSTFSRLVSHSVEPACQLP
# [2] = biological target: T1, HaPhy (Hafnia alvei phytase); assay: isothermal titration calorimetry; format: binding
# [3] = biological target: T2, YkPhy (Yersinia kristensenii phytase) (Yersinia kristensenii, UniProt H9TUK6); settings: SPGS buffer pH 5.0 (phosphate from crystallisation solution); two Pi in the active site
# T2 construct: gene phyA
# T2 sequence (H9TUK6 entry or part of it): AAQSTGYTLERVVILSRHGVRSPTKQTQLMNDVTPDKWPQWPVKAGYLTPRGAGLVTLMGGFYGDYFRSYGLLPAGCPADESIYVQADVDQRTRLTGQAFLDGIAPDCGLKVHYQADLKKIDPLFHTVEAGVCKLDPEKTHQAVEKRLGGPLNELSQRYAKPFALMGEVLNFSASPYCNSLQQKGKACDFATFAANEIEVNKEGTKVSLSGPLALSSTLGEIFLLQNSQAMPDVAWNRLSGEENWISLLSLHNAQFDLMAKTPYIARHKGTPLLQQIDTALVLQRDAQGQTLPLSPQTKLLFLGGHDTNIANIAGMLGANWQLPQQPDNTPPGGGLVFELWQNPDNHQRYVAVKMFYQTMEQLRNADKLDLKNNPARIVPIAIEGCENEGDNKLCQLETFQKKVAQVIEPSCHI
smiles,measurement,setting,value
O=C(O)C(O)C(O)C(=O)O (stereo not drawn) [L(+)-tartrate],"X-ray crystal structure of the complex, 1.60 Å",[1],"The active site contained a tartrate molecule, a component of the crystallisation buffer"
"O=S(=O)(O)O[C@H]1[C@H](OS(=O)(=O)O)[C@@H](OS(=O)(=O)O)[C@H](OS(=O)(=O)O)[C@@H](OS(=O)(=O)O)[C@H]1OS(=O)(=O)O [MIHS, myo-inositol hexakissulphate]",Kd,[2],~0.16 µM
"O=P(O)(O)O [Pi, phosphate]","X-ray crystal structure of the complex, 1.67 Å",[3],Each monomer contains two Pi molecules in its active site
